Each structure is given as a SMILES string.

The data set is described as follows: Deblocking of ester in pH 10.0 carbonate buffer with hydroxylamine (A+C), reaction half-life and rate enhancement. Format: physicochemical. As to conditions: for Ratio of the A+B half-life to the A+C half-life (rate enhancement): pH 10.0, 25° C.; for reactivity with hydroxylamine vs comparisons: from Table I. The method, then:
Model studies were conducted on esters E-1 through E-6 to determine the possible rate enhancement which could be attained by using a dinucleophile rather than a mononucleophile to promote the removal from a phenolic moiety of a blocking group of this invention. Aqueous solutions A, B, and C, each containing 50% by volume of acetonitrile were prepared as follows (a separate solution A for each ester):
Solution A: 2.5 × 10^-4 M ester (or 2.5 × 10^-5 M E-
Solution B: 25% by volume carbonate buffer
(pH 10.0, ionic strength 0.75);
Solution C: Solution B with added 0.05M
Then equal volumes of A and B (or A and C) were mixed at 25° C. to give a pH 10.0 solution and the reaction was followed by spectrophotometric measurements of the phenol (290 nm) or p-nitrophenol (402 nm) produced with time. In each case a reaction half-life (t1/2) was calculated from the equation t/1/2 =1n(2)/k, where 1n(2) is the natural logarithm of 2 and k is the pseudo first-order rate constant calculated for the reaction. Smaller half-lives thus indicate more rapid reactions. The A+B combination provides an alkaline solution in which the main reactant is hydroxide ion (a mononucleophile) while in the A.C combination the active reactant is hydroxylamine (a dinucleophile). A ratio of the A+B half-life to the A+C half-life provides a measure of rate enhancement due to participation of hydroxylamine in the deblocking reaction.

Regarding `CC1(C(=O)Oc2ccc([N+](=O)[O-])cc2)CCCCC1=O` (centres unmarked) [Example E-4, reference compound], the “Ratio of the A+B half-life to the A+C half-life (rate enhancement)” value (“Ratio of the A+B half-life” for short) is given as 2.3 × 10^5. The same measure, in the same setting: as for `CC(=O)C(C)(C)C(=O)Oc1ccccc1` [Example E-5, reference compound], the figure is 3.7 × 10^4. For the compound `CN(C(=O)N1CCC(=O)C(C)(C(=O)Oc2ccc([N+](=O)[O-])cc2)C1)c1ccccc1` (centres unmarked) [Example E-1], the “reactivity with hydroxylamine vs comparisons” value was “much more reactive with the dinucleophile hydroxylamine than are the comparisons” and the “Ratio of the A+B half-life” value was 3.8 × 10^4.

As to `CC(=O)CC(C)(C)C(=O)Oc1ccccc1` [Example E-6, reference compound], the “Ratio of the A+B half-life” value is reported as 1.7 × 10^2. In the case of `COc1ccc(C(=O)N2CCC(=O)C(C)(C(=O)Oc3ccc([N+](=O)[O-])cc3)C2)cc1` (centres unmarked) [Example E-2], the “reactivity with hydroxylamine vs comparisons” value is listed as “much more reactive with the dinucleophile hydroxylamine than are the comparisons” and the “Ratio of the A+B half-life” value is given as 2.9 × 10^4.

Consider `CC1(C(=O)Oc2ccc([N+](=O)[O-])cc2)CN(C(=O)OCc2ccc([N+](=O)[O-])cc2)CCC1=O` (centres unmarked) [Example E-3], for which the “Ratio of the A+B half-life” value is 3.6 × 10^4.

Values taken from US5242783A, “Photographic material and process” (Eastman Kodak Company, priority 1992, dated 1993).
